Patent publication US10308640B2, “1,3-dihydroimidazole-2-thione derivatives for use in the treatment of pulmonary arterial hypertension and lung injury” (BIAL—PORTELA & CA S.A., priority 2012, dated 2019)

Key:
[1] = test system: Monocrotaline (MCT) lung injury model of Pulmonary Arterial Hypertension; experiment: Survival in the Monocrotaline (MCT) lung injury model of Pulmonary Arterial Hypertension (Kaplan-Meier curves, 28 days); format: in vivo, rat; conditions: MCT rats; for survival (survival curve): compared to MCT group
Description: (§1) One of the most-used animal models is the Monocrotaline (MCT) lung injury model of Pulmonary Arterial Hypertension. Administration of MCT, that is metabolized in the liver to the reactive metabolite dehydromonocrotaline, results in a syndrome characterized by acute lung injury, interstitial pulmonary fibrosis, necrotizing pulmonary arteritis, pulmonary hypertension, right ventricular (RV) hypertrophy, myocarditis and hepatic venoocclusive disease.
(§2) The protocol to use is a standard one (Curr. Protoc. Pharmacol. 46:5.56.1-5.56.11(2009) John Wiley & Sons Inc). Rats, of 6-7 weeks old (150-200 g) are administered MCT 60 mg/kg subcutaneously, and the pathology usually develops in the course of initial 3 to 4 weeks with the animals dying within the next 2 weeks (5th-6th week). A decrease of 50% in food and water consumption is thought to be indicative of pathological status severe enough for testing.
Two studies were conducted separately and a combination analysis performed on the two studies. Each study consisted in the scheme represented in FIG. 1.
The experimental design of both studies was the same, with animals randomized in seven groups, five groups of 10 animals each (MCT, MCT+Bos300, MCT+Bos100, MCT+Compound B, MCT+Compound B+Bos100) and 2 groups of 6 animals each (SHAM and SHAM+Compound B).
The experimental details are described in more detail below; briefly, compounds were given to rats mixed with food starting, Compound B (30 mg/kg/day) for groups MCT+Compound B and SHAM+Compound B, bosentan (300 mg/kg/day) for group MCT+Bos300, bosentan (100 mg/kg/day) for group MCT+Bos100, Compound B+bosentan (30+100 mg/kg/day) for group MCT+Compound B+Bos100, and no compound for groups MCT and SHAM. Animals from groups MCT were administered MCT and animals from groups SHAM were administered vehicle. Twenty eight days later, surviving animals were sacrificed, tissues collected and weighed. During the entire experimental period food, water consumption and animal weight were monitored. The ratios organ weight to body weight (BW) were calculated to evaluate organ hypertrophy. The index of RV/LV+S was calculated as an index of RV hypertrophy. […]
Animals were given powdered food for an adaptation period of 3-5 days before treatment start. […] Food, water consumption and animal weight were monitored over the entire duration of the experiment.
Animals were given powdered food for an adaptation period of 3-5 days before treatment start. […] Animal weight, food and water consumption were evaluated twice a week and animals were regularly observed for any disease signs. Mortality was registered and on day 28 surviving animals were sacrificed, selected organs weighed and femurs removed and measured. […]

[2] = test system: Monocrotaline (MCT) lung injury model of Pulmonary Arterial Hypertension; experiment: Cardiac remodelling (organ weight ratios, Fulton index) in the MCT lung injury model of PAH; format: in vivo, rat; conditions: compared to MCT group; for right ventricular hypertrophy: 28 days
Description: as §1, §2
The experimental details are described in more detail below; briefly, compounds were given to rats mixed with food starting, Compound B (30 mg/kg/day) for groups MCT+Compound B and SHAM+Compound B, bosentan (300 mg/kg/day) for group MCT+Bos300, bosentan (100 mg/kg/day) for group MCT+Bos100, Compound B+bosentan (30+100 mg/kg/day) for group MCT+Compound B+Bos100, and no compound for groups MCT and SHAM. Animals from groups MCT were administered MCT and animals from groups SHAM were administered vehicle. Twenty eight days later, surviving animals were sacrificed, tissues collected and weighed. During the entire experimental period food, water consumption and animal weight were monitored. The ratios organ weight to body weight (BW) were calculated to evaluate organ hypertrophy. The index of RV/LV+S was calculated as an index of RV hypertrophy. In each study an n=10 animals was used for each MCT treatment group, and an n=6 was used for the groups not given MCT. The animals from MCT+Bos300 group from Study 1 were not considered for the combined survival analysis since these unexpectedly presented a higher mortality effect as compared to the MCT group. The surviving animals from this group were nevertheless considered for the cardiac remodelling analysis.
All data is expressed as mean±sem (Standard Error of the Mean) unless otherwise indicated. Differences between treatment groups were analysed by one-way ANOVA and post-hoc Newman-Keuls multiple comparison test. P<0.05 was considered statistically significant.
On day 28 surviving animals were sacrificed and the following tissues/organs collected and weighed: liver, kidney, lung, heart and spleen. Femurs were removed and measured. Heart was dissected into right ventricle, left ventricle+septum and these were also weighed. The ratio organ to body weight (BW) was calculated as well as the ratio organ weight to femur length. The index of RV/LV+S is an index of RV hypertrophy. Catecholamines were evaluated only on right ventricle and left ventricle+septum.
Whole spleen, whole liver, left kidney and lungs were removed, cleaned and weighed. Heart was removed, cleaned from atria and vascular tissue and weighed. Right ventricle was then dissected from the rest of the heart (left ventricle +septum) and both were weighed and put in tubes containing 0.2 M PCA. Femurs were removed, cleaned and length measured with a calliper.
The ratios organ weight to body weight and organ weight to femur length were calculated as well as the ratio right ventricular weight to left ventricular+septum weight.
Organs weighed were: liver, kidney, lung, heart and spleen. Heart was dissected into right ventricle, left ventricle+septum and these were also weighed. The ratio organ to body weight (BW) was calculated as well as the ratio organ weight to femur length. The index of RV/LV+S is an index of RV hypertrophy.
Whole spleen, whole liver, both kidneys and lungs were removed, cleaned and weighed. Heart was removed, cleaned from atria and vascular tissue and weighed. […]

[3] = Compound B alone 30 mg/kg/day, 28 days after MCT
[4] = Bosentan 300 mg/kg/day, 28 days after MCT

Row | Compound | survival (survival curve) ([1]; Compound B 30 mg/kg/day in food) | survival rates compared to the use of bosentan alone ([1]; Compound B alone 30 mg/kg/day) | right ventricular hypertrophy ([2]; Compound B 30 mg/kg/day) | Fulton Index (RV/LV+S) [2, 3] | heart weight over bodyweight (BW) [2, 3] | right ventricle (RV) weight over bodyweight (BW) [2, 3] | survival (survival curve) ([1]; bosentan 100 mg/kg/day in food) | survival (survival curve) ([1]; bosentan 300 mg/kg/day in food) | Fulton Index (RV/LV+S) [2, 4] | right ventricle (RV) weight over bodyweight (BW) [2, 4] | right ventricular hypertrophy ([2]; bosentan 100 mg/kg/day (MCT+Bos100)) | right ventricular hypertrophy ([2]; bosentan 300 mg/kg/day (MCT+Bos300))
1 | Fc1cc(F)c2c(c1)C[C@@H](n1c(CCNCc3ccccc3)c[nH]c1=S)CO2 [Compound B, (R)-5-(2-(benzylamino)ethyl)-1-(6,8-difluorochroman-3-yl)-1H-imidazole-2(3H)-thione] | slight increase in survival | greater survival rates | significant decreased | significantly decreased | significantly decreased | significantly decreased |  |  |  |  |  | 
2 | COc1ccccc1Oc1c(NS(=O)(=O)c2ccc(C(C)(C)C)cc2)nc(-c2ncccn2)nc1OCCO [bosentan, Bosentan] |  |  |  |  |  |  | No clear benefit | No clear benefit | significantly decreased | significantly decreased | significant decreased | marked and statistically significant decrease
